US20070203144A1, “Use of Memantine and Brimonidine to Attenuate Vitreoretinal Vascular Endothelial Growth Factor (VEGF) Protein Levels in Animals” (Allergan, Inc., priority 2006, published 2007)

What was measured:
VEGF protein [1] = experiment: Vitreal VEGF protein level in STZ-induced diabetic Long Evans rats; assay type: in vivo; details: STZ diabetic LE rats, mini-osmotic pump, STZ/Veh 228, Veh/Veh 164
Protocol: Long Evans (LE) rats were treated with vehicle or streptozotocin (1×, 65 mg/kg). After 7 days, vehicle treated rats were treated further with a second vehicle and STZ treated diabetic rats were treated either with a second vehicle, Brimonidine (1 mg/kg/d) as a positive control, Panagonist A (300 ug/kg/d) or panagonist B (300 ug or 3 mg/kg/d) for another 3 wks using mini-osmotic pumps. Note that the synthesis of these two panagonists is known in the art. The panagonists have the following structure [drawing 1]
At end of the study, animals were sacrificed & vitreal VEGF protein level was measured as described earlier.
Long Evans rats were treated with vehicle or streptozotocin (1×, 65 mg/kg). After 7 days, vehicle treated rats were treated further with a second vehicle and STZ treated diabetic rats were treated either with a second vehicle, Brimonidine (1 mg/kg/d) as a positive control, or the Alpha 2B selective agonist, [drawing 2] (“2B Agonist”) (300 ug or 3 mg/kg/d) for another 3 wks using mini-osmotic pumps At end of the study, animals were sacrificed & vitreal VEGF protein level was measured as described earlier.

VEGF protein [2] = experiment: VEGF protein levels in retina of STZ-treated BN rats; assay type: in vivo, Brown Norway (BN) rats; details: 5 wks, Mem 10 mg/kg/day or Bri 1 mg/kg/day for 4 wks after 1 wk of STZ, STZ/Veh 719, Veh/Veh 482
Protocol: (§1) Male Brown Norway (BN) rats were randomized into 4 different groups based on basal glucose and body weight. Using one time IP injection, one group of animals was treated with vehicle and other 3 groups were treated with 65 mg/kg streptozotocin (STZ). Within two days after STZ-treatment, blood glucose of the animals reached to 400 mg/dl from 100 mg/dl. After one wk of vehicle or STZ treatment, vehicle treated animals were further treated with a second vehicle for another 4 wks (Veh/Veh-35 D) and STZ treated animals were treated with either a second vehicle (STZ-35D/Veh-28D), Memantine, Mem (10 mg/kg/day) (STZ-35D/Mem-28D) or Brimonidine, Bri (1 mg/kg/day) for 4 wks (STZ-35D/Bri-28D) using mini osmotic pumps.

VEGF protein [3] = experiment: VEGF protein levels in vitreous fluid of STZ-treated BN rats; assay type: in vivo, Brown Norway (BN) rats; details: 5 wks, Mem 10 mg/kg/day or Bri 1 mg/kg/day for 4 wks after 1 wk of STZ, STZ/Veh 259, Veh/Veh 157
Protocol: as §1

[4] = test system: blood-retinal barrier (BRB); experiment: Retinal BRB breakdown in STZ-treated BN rats; assay type: in vivo, Brown Norway (BN) rats; details: 5 wks, Mem 10 mg/kg/day or Bri 1 mg/kg/day for 4 wks after 1 wk of STZ, STZ/Veh 22.9, Veh/Veh 9.1
Protocol: as §1

VEGF protein [5] = experiment: VEGF protein levels in vitreous fluid of non-diabetic BN rats; assay type: in vivo, Brown Norway (BN) rats; details: Mem 10 mg/kg/day or Bri 1 mg/kg/day for 28 days
[6] = 300 ug/kg/d for 3 wks (1 wk after STZ)
[7] = 3 mg/kg/d for 3 wks (1 wk after STZ)

Compound | VEGF protein levels in vitreous fluid (VEGF protein [1]; [6]) [pg/mL] | VEGF protein levels in vitreous fluid (VEGF protein [1]; [7]) [pg/mL] | VEGF protein levels in retina (VEGF protein [2]) [pg/mg protein] | VEGF protein levels in vitreous fluid (VEGF protein [3]) [pg/mL] | BRB breakdown in retina [4] | difference in vitreous fluid VEGF protein levels vs vehicle (VEGF protein [5]) | VEGF protein levels in vitreous fluid (VEGF protein [1]; 1 mg/kg/d for 3 wks (1 wk after STZ)) [pg/mL]
Cc1cccc([C@@H](C)c2c[nH]c(=S)[nH]2)c1C [panagonist B] | 122 | 109 | – | – | – | – | –
c1cnc2c(c1)CC[C@@H](Cc1c[nH]cn1)C2 [panagonist A] | 133 | – | – | – | – | – | –
CC12CC3CC(C)(C1)CC(N)(C3)C2 [Memantine, memantine] | – | – | 475 | 160 | 11.9 ul plasma/g retina dry weight/hr | no difference | –
Brc1c(NC2=NCCN2)ccc2nccnc12 [Brimonidine, brimonidine] | – | – | 455 | 140 | 12.2 ul plasma/g retina dry weight/hr | no difference | 133
S=c1[nH]cc(CC2CC=CC2)[nH]1 [2B Agonist] | 148 | 130 | – | – | – | – | –
